Laboratory results from patent US20230060040A1, “USE OF TRANSFERRIN, TRANSFERRIN RECEPTOR AND ANTIBODY THEREOF IN PREPARATION OF ANTI-SARS-CoV-2 DRUG” (KUNMING INSTITUTE OF ZOOLOGY, CHINESE ACADEMY OF SCIENCES, priority 2020, published 2023).
Values joined by “and” are separate entries in the source; they are usually repeats but may differ in a detail not shown here. Identical values can stand only once. Like-named read-outs stand apart in the source and are kept apart here.

What was measured:
[1] = tested on: SARS-CoV-2; assay type: cell-based
[2] = tested on: SARS-CoV-2; assay type: cell-based; conditions: read-out: EC50 by qRT-PCR
[3] = target: SARS-CoV-2 spike protein (Severe acute respiratory syndrome coronavirus 2, UniProt P0DTC2); conditions: SPR, spike protein 3.90625-250 nM, immobilized transferrin receptor
[4] = tested on: SARS-CoV-2; assay type: cell-based; conditions: Vero E6 cells, different concentrations, 48 h

| Substance | EC50 ([1]; read-out: EC50 by CPE analysis) [nM] | EC50 [2] | binding of SARS-CoV-2 spike protein to transferrin receptor [3] | inhibition of SARS-CoV-2 infection [4] | EC50 ([1]; read-out: EC50 calculated by CPE) |
| --- | --- | --- | --- | --- | --- |
| transferrin receptor: transferrin receptor protein purchased from Sino Biological, catalog number 11020-H07H | 80 | 93 nM and 50 nM | strong binding capacity | could inhibit SARS-CoV-2 infection | – |
| transferrin: main iron-containing plasma single-chain glycoprotein, purchased from Sigma, catalog number T4382 | 125 | 160 nM | – | could inhibit SARS-CoV-2 infection | 80 nM and 50 nM |
